From patent US20220265817A1, “THERAPEUTIC COMPOSITIONS AND METHODS FOR TREATING HEPATITIS B” (priority 2017, published 2022)
Read-outs that look alike come from different tables or passages of the source. [UNA] = unlocked nucleic acid; m = 2'-O-methyl; r = 2'-OH (RNA)

Key:
HBV genome = assay: siRNA IC50 (Table A); set-up: species or system Hepatitis B virus
[1] = test system: D type HBV in primary human hepatocytes; assay: microbe, parasite or virus in culture; type: cell-based; conditions: for AVERAGE % INHIBITION: COMPOUND 22 0 nM
Procedure: (§1) The mouse liver perfusion was applied to isolate PHHs. The isolated hepatocytes were further purified by Percoll. The cells were resuspended with culture media and seeded into the 96-well plates (6×10^4 cell/well) or 48-well plates (1.2×10^5 cell/well). The PHHs were infected with a D type HBV one day post seeding (day 1).
(§2) On day 2, the test compounds were diluted and added into the cell culture plates. The culture media containing the compounds were refreshed every other day. The cell culture supernatants were collected on day 8 for the HBV DNA and antigen determinations.
(§3) The compounds were tested at 7 concentrations, 3-fold dilution, in triplicate.
(§4) Two compounds were tested at 5×5 matrix, in triplicate plates.
DNA in the culture supernatants harvested on days 8 were isolated with QIAamp 96 DNA Blood Kit (Qiagen-51161). For each sample, 100 μl of the culture supernatants was used to extract DNA. The DNA was eluted with 100 μl, 150 μl or 180 μl of AE. HBV DNA in the culture supernatants was quantified by qPCR. The combination effect was analyzed by the MacSynergy software. The primers are described below.

[2] = test system: HBV rcDNA in HepDE19 cells; assay: HepDE19 cell culture system, rcDNA quantitation using bDNA assay, MacSynergy II; type: cell-based, human hepatoma cell line; conditions: Hepatitis B virus
Procedure: In vitro combination studies were conducted using the method of Prichard and Shipman (Prichard M N, and Shipman C Jr., Antiviral Research, 1990, 14 (4-5), 181-205; and Prichard M N, et. al., MacSynergy II). HepDE19 cell culture system is a HepG2 (human hepatocarcinoma) derived cell line that supports HBV DNA replication and cccDNA formation in a tetracycline (Tet)-regulated manner and produces HBV rcDNA and a detectable reporter molecule dependent on the production and maintenance of cccDNA (Guo et al 2007. J. Virol 81:12472-12484). HepDE19 (50,000 cells/well) were plated in 96 well collagen-coated tissue-culture treated microtiter plates in DMEM/F12 medium supplemented with 10% fetal bovine serum, 1% penicillin-streptomycin and 1 μg/ml tetracycline and incubated in a humidified incubator at 37° C. and 5% CO2 overnight. Next day, the cells were switched to fresh medium without tetracycline and incubated for 4 hrs at 37° C. and 5% CO2. […] The two inhibitors were tested both singly as well as in combinations in a checkerboard fashion such that each concentration of inhibitor A was combined with each concentration of inhibitor B to determine their combination effects on inhibition of rcDNA production. Following a 7 day-incubation of cells with compound combinations, the level of rcDNA present in the inhibitor-treated wells was measured using a Quantigene 2.0 bDNA assay kit (Affymetrix, Santa Clara, Calif.) with HBV specific custom probe set and manufacturers instructions. […] The RLU data from the single compound treated cells were analyzed using XL-Fit module in Microsoft Excel to determine EC50 values using a 4-parameter curve fitting algorithm. Concurrently, the effect of compounds on cell viability was assessed using replicate plates, plated at a density of 5,000 cells/well and incubated for 4 days, to determine the ATP content as a measure of cell viability using the cell-titer glo reagent (CTG; Promega Corporation, Madison, Wis.) as per manufacturer's instructions.
In vitro combination studies were conducted using the method of Prichard and Shipman (Prichard M N, Shipman C, Jr., Antiviral Res, 14, 181-205 (1990)). The HepDE19 cell line was developed as described in Guo et al. (Guo et al., J Virol, 81, 12472-12484 (2007)). It is a human hepatoma cell line stably transfected with the HBV genome, and which can express HBV pregenomic RNA and support HBV rcDNA (relaxed circular DNA) synthesis in a tetracycline-regulated manner. HepDE19 cells were plated in 96 well tissue-culture treated microtiter plates in DMEM/F12 medium supplemented with 10% fetal bovine serum+1% penicillin-streptomycin without tetracycline and incubated in a humidified incubator at 37° C. and 5% CO2 overnight. […] The two inhibitors were tested both singly as well as in combinations in a checkerboard fashion such that each concentration of inhibitor A was combined with each concentration of inhibitor B to determine their combination effects on inhibition of rcDNA production. Following a 48 hour-incubation, the level of rcDNA present in the inhibitor-treated wells was measured using a bDNA assay (Affymetrix) with HBV specific custom probe set and manufacturers instructions. […] Concurrently, the effect of inhibitor combinations on cell viability was assessed using replicate plates that were used to determine the ATP content as a measure of cell viability using the Cell-TiterGlo reagent (Promega) as per manufacturer's instructions.
In vitro combination studies were conducted using the method of Prichard and Shipman (1990) (Prichard M N, Shipman C, Jr. 1990. A three-dimensional model to analyze drug-drug interactions. Antiviral Res 14:181-205 AND Prichard M N. 1992. MacSynergy II, University of Michigan).

[3] = test system: D type HBV in primary human hepatocytes (HBsAg); assay: microbe, parasite or virus in culture; type: cell-based; conditions: for AVERAGE % INHIBITION: COMPOUND 22 0 nM
Procedure: as §1, §2, §3, §4
(§5) HBsAg/HBeAg in the culture supernatants harvested on days 8 were measured by the HBsAg/HBeAg ELISA kit (Autobio) according to the manual. The samples were diluted with PBS to get the signal in the range of the standard curve. The inhibition rates were calculated with the formula below. The combination effect was analyzed by the MacSynergy software.
% Inh. HBsAg=[1-HBsAg quantity of sample/HBV quantity of DMSO control]×100.

[4] = test system: D type HBV in primary human hepatocytes (HBeAg); assay: microbe, parasite or virus in culture; type: cell-based
Procedure: as §1, §2, §3, §4, §5
% Inh. HBeAg=[1-HBeAg quantity of sample/HBV quantity of DMSO control]×100.

[5] = Hepatitis B virus, Hepatocyte, read-out: AVERAGE % […] DNA
[6] = Hepatitis B virus, Hepatocyte, read-out: Inhibitor A EC50
[7] = Hepatitis B virus, Hepatocyte, read-out: Inhibitor EC50
[8] = HepDE19, read-out: AVERAGE % INHIBITION
[9] = Hepatitis B virus, Hepatocyte, read-out: AVERAGE % INHIBITION HBsAg

1m: siRNA duplex SEQ ID NO: 1 and 2 targeting the HBV genome (chain 1 AGGUAUGUUGCCCGUUUGUUU; chain 2 ACAAACGGGCAACAUACCUUU; chain 1: sugars from the 5' end [UNA]mrmrrmmrrrrrmrmrrr[UNA][UNA], backbone not given here; chain 2: sugars from the 5' end rrrrrrmrrrrrrrmrrrr[UNA][UNA], backbone not given here) [Compound 1m]
IC50 (HBV genome): 1.43 nM

2m: siRNA duplex SEQ ID NO: 3 and 4 targeting the HBV genome (chain 1 GCUCAGUUUACUAGUGCCAUU; chain 2 UGGCACUAGUAAACUGAGCUU; chain 1: sugars from the 5' end [UNA]rmmrmrrrrrrrrrrrmrr[UNA], backbone not given here; chain 2: sugars from the 5' end r9 m1 r7 m1 r3, backbone not given here) [Compound 2m]
IC50 (HBV genome): 0.37 nM

3m: siRNA duplex SEQ ID NO: 5 and 6 targeting the HBV genome (chain 1 CCGUGUGCACUUCGCUUCAUU; chain 2 UGAAGCGAAGUGCACACGGUU; chain 1: sugars from the 5' end [UNA]rrrmmrrrrrmrrrmmrr[UNA][UNA], backbone not given here; chain 2: sugars from the 5' end rrrrrrrrrrrmrrrrrmr[UNA][UNA], backbone not given here) [Compound 3m]
IC50 (HBV genome): 0.06 nM

4m: siRNA duplex SEQ ID NO: 7 and 8 targeting the HBV genome (chain 1 GCUCAGUUUACUAGUGCCAUU; chain 2 UGGCACUAGUAAACUGAGCUU; chain 1: sugars from the 5' end [UNA]rmmrmrrrrrrrrrrrmr[UNA][UNA], backbone not given here; chain 2: sugars from the 5' end rrrrrrrrrmrrrrrrrmr[UNA][UNA], backbone not given here) [Compound 4m]
IC50 (HBV genome): 0.31 nM

5m: siRNA duplex SEQ ID NO: 9 and 10 targeting the HBV genome (chain 1 CCGUGUGCACUUCGCUUCAUU; chain 2 UGAAGCGAAGUGCACACGGUU; chain 1: sugars from the 5' end [UNA]rrrmmrrrrrmrrrmrrrr[UNA], backbone not given here; chain 2: sugars from the 5' end r11 m1 r5 m1 r3, backbone not given here) [Compound 5m]
IC50 (HBV genome): 0.06 nM

6m: siRNA duplex SEQ ID NO: 11 and 12 targeting the HBV genome (chain 1 CUGGCUCAGUUUACUAGUGUU; chain 2 CACUAGUAAACUGAGCCAGUU; chain 1: sugars from the 5' end [UNA]mmmrrrrrrrrrrmrmrrr[UNA], backbone not given here; chain 2: sugars from the 5' end rrrrrmrrrrrrmrmrrrrrr, backbone not given here) [Compound 6m]
IC50 (HBV genome): 0.05 nM

7m: siRNA duplex SEQ ID NO: 13 and 14 targeting the HBV genome (chain 1 CCGUGUGCACUUCGCUUCAUU; chain 2 UGAAGCGAAGUGCACACGGUU; chain 1: sugars from the 5' end [UNA]rrrmmrrrrrmrrrmrrr[UNA][UNA], backbone not given here; chain 2: sugars from the 5' end rrrrrrrrrrrmrrrrrmr[UNA][UNA], backbone not given here) [Compound 7m]
IC50 (HBV genome): 0.06 nM

CC(C)OC(=O)[C@H](C)N[P@](=O)(CO[C@H](C)Cn1cnc2c(N)ncnc21)Oc1ccccc1 [TAF, tenofovir alafenamide, reference compound]
inhibition at 50 pM [1, 5]: -8.77%
inhibition at 0.00012 µM [1, 5]: 6.36%
inhibition at 0.00037 µM [1, 5]: 11.6%
inhibition at 0.00041 µM [1, 5]: 28.8%
inhibition at 0.00123 µM [1, 5]: 63.4%
inhibition at 0.00333 µM [1, 5]: 42.6%
inhibition at 0.0037 µM [1, 5]: 78.3%
inhibition at 0.01 µM [1, 5]: 43.3%
EC50 [1, 6]: 0.405 nM
EC50 [1, 7]: 0.405 nM
AVERAGE % INHIBITION ([1]; TAF 0.12 nM): −2.6%
AVERAGE % INHIBITION ([1]; TAF 0.37 nM): −1.92%
AVERAGE % INHIBITION ([1]; TAF 3.33 nM): 40.16%
AVERAGE % INHIBITION ([1]; TAF 10.00 nM): 50.21%
AVERAGE % INHIBITION ([1]; TAF […]): 4.95%
inhibition at 0.000781 µM [2, 8]: -4.76%
inhibition at 0.001563 µM [2, 8]: 3.49%
inhibition at 0.003125 µM [2, 8]: 0.6%
inhibition at 0.00625 µM [2, 8]: 10.6%
inhibition at 0.0125 µM [2, 8]: 28.6%
inhibition at 0.025 µM [2, 8]: 20%
inhibition at 0.05 µM [2, 8]: 53.2%
inhibition at 0.1 µM [2, 8]: 77.6%
inhibition at 0.2 µM [2, 8]: 89.9%
EC50 ([2]; HepDE19, read-out: Inhibitor B EC50): 44.5 nM
inhibition at 50 pM [3, 9]: -7.35%
inhibition at 0.00012 µM [3, 9]: 23%
inhibition at 0.00014 µM [3, 9]: 12.8%
inhibition at 0.00037 µM [3, 9]: 7.04%
inhibition at 0.00041 µM [3, 9]: 11.3%
inhibition at 0.00123 µM [3, 9]: 11%
inhibition at 0.00333 µM [3, 9]: 16.1%
inhibition at 0.0037 µM [3, 9]: -6.72%
inhibition at 0.01 µM [3, 9]: 6.38%
EC50 [3, 6]: > 100 nM
EC50 [3, 7]: > 100 nM
AVERAGE % INHIBITION ([3]; TAF 0.1234568 nM): 29.82%
AVERAGE % INHIBITION ([3]; TAF 0.3703704 nM): 10.78%
AVERAGE % INHIBITION ([3]; TAF 1.1111111 nM): 20.81%
AVERAGE % INHIBITION ([3]; TAF 3.3333333 nM): 9.06%
AVERAGE % INHIBITION ([3]; TAF 10 nM): 7.97%
EC50 [4, 7]: > 100 nM
AVERAGE % INHIBITION ([4]; TAF 0.05 nM, COMPOUND 3 0.00 nM): 1.17%
AVERAGE % INHIBITION ([4]; TAF 0.12 nM, COMPOUND 22 0 nM): 26.61%
AVERAGE % INHIBITION ([4]; TAF 0.14 nM, COMPOUND 3 0.00 nM): −2.78%
AVERAGE % INHIBITION ([4]; TAF 0.37 nM, COMPOUND 22 0 nM): 9.9%
AVERAGE % INHIBITION ([4]; TAF 0.41 nM, COMPOUND 3 0.00 nM): 1.76%
AVERAGE % INHIBITION ([4]; TAF 1.23 nM, COMPOUND 3 0.00 nM): 9.91%
AVERAGE % INHIBITION ([4]; TAF 3.33 nM, COMPOUND 22 0 nM): 19.69%
AVERAGE % INHIBITION ([4]; TAF 3.70 nM, COMPOUND 3 0.00 nM): 11.87%
AVERAGE % INHIBITION ([4]; TAF 10.00 nM, COMPOUND 22 0 nM): 22.85%
AVERAGE % INHIBITION ([4]; TAF […], COMPOUND 22 0 nM): 22.56%
